Tests used:
cathepsin S = experiment: RT-PCR of cathepsin S gene expression in MDA-MB-231 cells; type: cell-based; conditions: Homo sapiens, MDA-MB-231, 24 h, screening, 1 μM of each compound; MDA-MB-231, RT-PCR; read-out: Inhibition rate of expression of cathepsin S (%)
Protocol: Each compound of the present invention was treated with breast cancer cells (1×10^5 cell/cm^2), e.g., MDA-MB-231, and then, cultured at a temperature of 37° C. for 24 hours in a cell incubator. Afterwards, a trizole reagent was used to extract the entire mRNA therefrom. 24 hours later, the culture medium was removed therefrom, 1 mL of the triazole reagent was added to each well, and then, the cell elusion was transferred to a 1.5 mL tube. After 200 μl of chloroform was added to each sample, the samples were subjected to centrifugation at a temperature of 4° C., at 12,000 g, for 15 minutes. 500 μl of the supernatant obtained therefrom was transferred to a new tube. After 500 μl of isopropylalcohol was added to each sample, the samples were subjected to centrifugation at a temperature of 4° C., at 12,000 g, for 15 minutes. The supernatant obtained therefrom was removed from each sample, and then, the samples were washed with 75% ethanol to clean mRNA while the precipitants were dried. Then, mRNA extracted therefrom was dissolved in RNase-free water, followed by being heated at a temperature of 55° C. for 10 minutes.
After the RNA quantification, the GoScript™ reverse transcription system (Promega Corporation, Madison, Wis., USA) was used to synthesize cDNA. Here, PCR was performed by using TaKaRa Taq™ (Takara bio Inc., Shiga, Japan), wherein a primer set of cathepsin S consists of a forward primer having SEQ ID NO: 1 (forward sequence: 5′-GCAGTGGCACAGTTGCATAA-3′) and a reverse primer having SEQ ID NO: 2 (reverse sequence: 5′-AGCACCACAAGAACCCATGT-3′). After the PCR product was subjected to agarose gel electrophoresis, the PCR product was stained with ethidium bromide (0.5 μg/ml), thereby obtaining images thereof by using the gel imaging system (UVP, Cambridge, UK). Here, the PCR product was quantified based on glyceraldehyde 3-phosphate dehydrogenase (GAPDH). A GAPDH primer used herein consists of a forward primer having SEQ ID NO: 3 (forward sequence: 5′-GGTGAAGGTCGGAGTCAACG-3′) and a reverse primer having SEQ ID NO: 4 (reverse sequence: 5′-CAAAGTTGTCATGGATGACC-3′).
Furthermore, to screen other amidopyridinol derivatives that inhibit metastasis of breast cancer cells, inhibitory effects on expression of cathepsin S genes were reviewed by treating 1 μM of each compound, in the same manner as in Experimental Example 9.

TNBS-induced colitis = TNBS-induced colitis model of inflammatory bowel disease; type: in vivo, rat (Sprague Dawley)
From the text: To see alleviating effects of the compounds of the present invention on colitis, an animal model induced by TNBS and having colitis was used for the experiments. The animal used herein was a 7 to 8 week Sprague Dawley species purchased from Samtaco Bio Korea. After the purchase, the animal was stabilized with typical solid feed for 2 days before being used for the experiments. The animal was freely supplied with feed and water during the experiments, and stayed in conditions maintaining a cage temperature of about 25±1° C. and relative humidity of about 50±10%. The cage was equipped with an automatic lightening system to adjust 12-hour light-dark cycle.
In regard to the experimental groups, 5 groups (i.e., a control group, a group administered with TNBS only, […], […], […]) were used according to the randomized block design, wherein each group consists of 6 rats having an average weight of about 180±10 g. The rats that had been fasting for 24 hours were anesthetized with diethylether (Et2O), and then, a 1 mL syringe connected with a polyethylene catheter was used to slowly inject 0.8 mL of 3% TNBS into colonic enema through the anus, wherein TNBS was diluted with 50% (v/v) ethanol. To prevent leakage of 3% TNBS from the anus, the rats turned upside down and let stand for 60 minutes.
In regard to the control group, only a vehicle (50% (v/v) ethanol) was injected into the rats of the control group in the same manner as in preparation of other experimental groups. To examine the effects of the drug, after being fasting for 24 hours, the rats were administered with drugs, i.e., 0.1 mg/kg or 1.0 mg/kg of Compounds 8a and 8j, once a day at a certain time from the second day to the fifth day of the TNBS treatment. As a comparative experimental material, 5-ASA, which is an active metabolite of sulfasalazine that is the most well-known as a therapeutic agent for IBDs, was used as a positive control group.
All the rats were scarified on the seventh day of the TNBS administration. […] After the large intestine of the rat was harvested, a 5 to 6 cm-long tissue from was cut from the anus to a size of 1 cm, and then, subjected to measure an intestine weight and activation of myeloperoxidase (MPO) in the tissue, and to perform a biopsy. In addition, changes in weight of all the animals used in the experiments were observed by using a digital mass meter, beginning from the fasting step, the TNBS administration, and the drug administration. In consideration of the management and use of laboratory animals, the animal experiments were followed according to institutional guidelines from Laboratory Animal Resources, Yeungnam University.
To measure the activation of MPO, an MPO assay was used. The colorectal tissue was washed with cold PBS, and a weight thereof was measured. Then, 200 μL of lysis buffer (pH7.4, 200 mM NaCl, 5 mM EDTA, 10 mM Tris, 10% glycerol) was added for each 10 mg of the weight of the tissue, and then, the tissue homogenizer (Bio homogenizer M133, BIOSPEC PRODUCTS Inc. USA) was used for 30 seconds in terms of homogenization. The homogenized sample was subjected to centrifugation (1500×g) twice, each for 15 minutes. The supernatant obtained therefrom was used to measure the activation of MPO by using the MPO ELISA kit (HK210, Hycult Biotechnology, Netherlands). 100 μL of the supernatant was added to the 96-well plates, each of which well was coated with an anti-mouse MPO antibody, to allow a reaction at room temperature for 1 hour, followed by being washed with PBS three times. Here, 100 μL of a reconstituted tracer was added thereto to allow a reaction at room temperature for 1 hour, followed by being washed three times repeatedly. Then, 100 μL of a reptavidin-peroxidase conjugate was added thereto to allow a reaction at room temperature for 1 hours, followed being washed. Then, 100 μL of a TMB substrate solution was added thereto to allow a reaction for 30 minutes. […]

SMILES | inhibition at 1 µM (cathepsin S) | changes in weights of the rat (TNBS-induced colitis; 1.0 mg/kg once a day, TNBS-induced rats) | conditions of the large intestine observed with the naked eye (TNBS-induced colitis; 1.0 mg/kg, TNBS-induced rats) | weight of the large intestine (TNBS-induced colitis; 1.0 mg/kg, vs TNBS-treated group) | activation of myeloperoxidase (MPO) in colorectal tissue (TNBS-induced colitis; 1.0 mg/kg, vs group treated with TNBS only)
CC(=O)Nc1nc(C)c(O)c(C)c1C [Compound 8a, N-(5-hydroxy-3,4,6-trimethylpyridine-2-yl)acetamide] | ≥ 50% | excellent recovery of the weight compared to the group treated with 5-ASA | excellent inhibitory effects on swelling and congestion | significantly decreased | lower activation of MPO
CCCCCCCCCCCC(=O)Nc1nc(C)c(O)c(C)c1C [Compound 8b, N-(5-hydroxy-3,4,6-trimethylpyridine-2-yl)dodecanamide] | ≥ 50% | – | – | – | –

Source: patent US9802897B2, “Amidopyridinol derivative or pharmaceutically acceptable salt thereof and pharmaceutical composition comprising same as active component” (Research Cooperation Foundation of Yeungnam University, priority 2013, dated 2017)
